The record followed here is patent US9115061B2, “Naphthalene-based inhibitors of anti-apoptotic proteins” (BURNHAM INSTITUTE FOR MEDICAL RESEARCH, priority 2007, dated 2015).

The target of one series is GST-BCL-XL ΔTM protein (Homo sapiens (Human), UniProt Q07817). Nature of the series: Competitive fluorescence polarization assay (FITC-Bak BH3 peptide). The note with it: read-out: FPA IC50 (BCL-XL). It counts as binding. The protocol: For competitive binding assays, 100 nM GST-BCL-XL ΔTM protein was preincubated with the tested compound at varying concentrations in 47.5 μL PBS (pH=7.4) in 96-well black plates at room temperature for 10 min, then 2.5 μL of 100 nM FITC-labeled Bak BH3 peptide was added to produce a final volume of 50 μL. The wild-type and mutant Bak BH3 peptides were included in each assay plate as positive and negative controls, respectively.
Sequence of GST-BCL-XL ΔTM protein (Q07817 1-209): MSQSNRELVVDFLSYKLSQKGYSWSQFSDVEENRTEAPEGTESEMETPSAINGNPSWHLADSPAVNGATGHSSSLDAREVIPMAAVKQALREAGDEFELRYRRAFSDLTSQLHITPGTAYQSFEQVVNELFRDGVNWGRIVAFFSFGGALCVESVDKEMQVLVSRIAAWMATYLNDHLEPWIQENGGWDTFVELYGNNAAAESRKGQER
IC50 was determined by fitting the experimental data to a sigmoidal dose-response nonlinear regression model (SigmaPlot 10.0.1, Systat Software, Inc., San Jose, Calif., USA). Data reported are mean of three independent experiments ±standard error (SE). […] Fluorescence polarization was measured after 10 min.

The next series concerns the target BIR3 domain of XIAP (Homo sapiens (Human), UniProt P98170). Nature of the series: Reactivity test by [15N,1H]-correlation NMR. The note with it: 1 mM gossypol, 200 μM BIR3, two hours. The protocol:
Pure polyphenols were obtained from SIGMA (gossypol and purpurogallin) and/or from Microsource Discovery Systems (Purpurogallin derivatives). Reference compounds were obtained from Chembridge Corp. (San Diego). Gossypol was tested as a racemic mixture of (+) and (−) isomers. Compounds were dissolved in DMSO at 100 mM concentration and stored at −20 DC. NMR analysis was periodically performed on the compounds as a quality control, prior to further dilution for binding and displacement assays.

In a further series the test system is H1299 cell line. The series can be described thus: Cell viability, ATP-LITE assay. In kind it is cell-based, human. The settings on record: 72 hours. The essentials:
(§1)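 Human cancer lines were seeded at 2000 (H460, H1299), 3000 (PC3) or 10,000 (RS11846) cells/well in F12 or RPMI1640 with 5% FBS. Compounds were added in 0.1% DMSO 24 h after seeding. Viability was read by ATP-LITE luminescence after 72 h and normalized to DMSO controls.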

A further series relates to PC3ML cells. Nature of the series: Cell viability, ATP-LITE assay. The note with it: 72 hours, ATP-LITE. In kind it is cell-based, human. The essentials: as §1
The test system of a further series is RS11846 cell line. The series can be described thus: Cell viability, ATP-LITE assay. In kind it is cell-based, human. The settings on record: 72 hours. The procedure, abridged:
as §1

Another series relates to H460 cell line. Nature of the series: Cell viability, ATP-LITE assay. It counts as cell-based, human. The note with it: 72 hours, ATP-LITE. The procedure, abridged:
as §1

In a further series the test system is BCL-2 transgenic mice. Nature of the series: Oral efficacy study in BCL-2 transgenic mice (splenomegaly). In kind it is in vivo, mouse. The note with it: QDX5 for 3 weeks. As for the experimental part:
The transgene was propagated on the Balb/c background.
Spleens were removed and weighed.
Spleens were excised from sacrificed mice and cell suspensions treated with a mouse erythrocyte lysing kit (R & D Systems). Total splenocyte count was determined by typan blue dye exclusion assays using hemocytometers. The percentage of B-lymphocytes was determined by fluorescence activated cell sorter (FACS) analysis SACS-CANTO, Bectin-Dickinson Inc., Mountain View, Calif.) following staining cells with Phyco-Erytrin (PE)-conjugated anti-CD19 or -B220 antibodies (Becton Dickinson, San Jose, Calif. 95131).
Representative data are shown by FIGS. 11A and 11B.

Sequence of BIR3 domain of XIAP (P98170 241-356): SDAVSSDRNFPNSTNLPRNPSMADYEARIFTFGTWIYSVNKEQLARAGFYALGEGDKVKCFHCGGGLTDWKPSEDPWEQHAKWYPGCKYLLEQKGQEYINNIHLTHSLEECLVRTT

As to `Cc1cc2c(C(C)C)c(O)c(O)c(C=O)c2c(O)c1-c1c(C)cc2c(C(C)C)c(O)c(O)c(C=O)c2c1O` [Gossypol, gossypol], at GST-BCL-XL ΔTM protein, the IC50 amounted to 2720 nM. The “reactivity with 15N-labeled BIR3, spectrum versus apo-Bir3” value on BIR3 domain of XIAP is recorded as “No appreciable differences”. In addition, the EC50 is 6000 nM in the series on H1299 cell line, 3100 nM with PC3ML cells, 2200 nM with RS11846 cell line and 3000 nM with H460 cell line. Also, the “tolerability, low dose” value in the series with BCL-2 transgenic mice (0.06 mmol/kg oral) is “well tolerated”. In the series with BCL-2 transgenic mice (0.06 mmol/kg oral, wet weight and B-cell count), the “shrinkage of spleen, low dose” value was “induced shrinkage of spleen to a considerable extent but not significantly”. The “tolerability, high dose” value with BCL-2 transgenic mice ([…] oral) is on record as “not tolerated”.

What is called IC50 is the concentration needed to halve the response being measured. As a reminder, the EC50 is the concentration at which the effect is half-maximal. Read a high EC50 as a need for much substance.
